Assay [1] deals with muscle-invasive bladder cancer (MIUC). The note with it: patients with MIUC, neo-adjuvant chemotherapy preceding radical surgery; cited from earlier work.
For assay [2], the system named is T24 shGULP1 cells versus T24 shScramble cells. The experiment in a line: MTT viability assay upon treatment with serial dilution of cisplatin. The assay is classed as cell-based, human. The note with it: T24 shGULP1 vs T24 shScramble, different concentrations of CDDP.
The subject of a further assay is GULP1 transcript. The experiment in a line: 5-Aza-dC treatment of UC cell lines, GULP1 expression by RT-PCR. The assay is classed as cell-based, human. The protocol: Twenty four hours before treatment, cells were plated at low density (1-3×10^6 cells, dependent on growth characteristics of the respective cell line) in T75 cm^2 Tissue Culture Flasks (BD Biosciences, Bedford, Mass., USA). Stock solutions of 100 mM 5-Aza-dC (Sigma-Aldrich, St. Louis, Mo.) and 5 mM Trichostatin A (TSA) (Sigma-Aldrich) were prepared with DMSO (Sigma-Aldrich). Immediately before addition to the cell culture medium, appropriate aliquots of the stock solutions were dissolved in PBS (pH 7.5). Cells were treated with 5 μM 5-Aza-dC for 3 to 5 days. Medium with 5-Aza-dC was changed daily. Additionally, combination treatment with 5-Aza-dC and TSA was performed by adding 5 μM of 5-Aza-dC daily for 5 days and TSA (300 nmol/L) was added to the medium for the final 24 hours. Cells were harvested 24 hours after the last day of treatment (5-Aza-dC only and 5-Aza-dC+TSA) for RNA extraction and the analysis of gene expression by Reverse Transcriptase-PCR (RT-PCR).
Total RNA (500 ng) from cell lines and from bladder tissue were reverse-transcribed with qScript cDNA SuperMix™ (Quanta BioSciences) kit. The primers were designed by using Primer3 software. Actin type B (ACTB) was used as a loading control. […] Expression of the gene of interest was quantified by 2^−ΔΔCT method.

Assay [3] deals with GULP1 localization in T24 cells. The experiment in a line: Confocal imaging of GULP1 subcellular localization upon blocking nuclear export. The note with it: treatment for 5 hours. Type of assay: cell-based, human. The protocol: To this end, the subcellular localization of GULP1 was determined by confocal microscopy analysis and nuclear-cytoplasm fractionation experiments using T24 cell line. The findings indicate that GULP1 localized in both nucleus and cytoplasm (FIG. 3d, upper and lower panel, and FIG. 8a). Ubiquitous localization pattern of GULP1 was further confirmed by performing immunofluorescence and confocal microscopy analysis by using two different antibodies against GULP1 and upon blocking nuclear export machinery by Leptomycin B (LMB) treatment for 5 hours (T24 cells in FIG. 3d and FIG. 8b).
Cells were grown on glass coverslips for 72 hs. After fixation in 4% paraformaldehyde, they were incubated in PBS 0.2% Glycine, permeabilized with PBS 10% Triton X100 for 10 minutes and incubated in Blocking buffer (PBS 3% BSA, 10% goat serum, 0.02% Tween) for 2-3 hours at r.t.
Incubation with the indicated primary antibodies (see Table 5) has been performed at 4° C. in the dark. After 5 washing with PBS 0.02% Tween, coverslips have been incubated with the indicated secondary antibodies (Table 5) for 1 h at r.t. For the case actin cytoskeleton analysis, after fixation, the coverslips have been incubated 90 minutes with Alexa Fluor® 488 Phalloidin (Life Technologies, 1:1000 in PBS). […] Slides were examined and photographed using a fluorescence microscope.

Assay [4] has as its target T1, BTB and CNC homology 1 (Bach1) (UniProt O14867 1-736).
T1 construct: Endogenous protein from lysates of human cell lines
T1 sequence (looked up): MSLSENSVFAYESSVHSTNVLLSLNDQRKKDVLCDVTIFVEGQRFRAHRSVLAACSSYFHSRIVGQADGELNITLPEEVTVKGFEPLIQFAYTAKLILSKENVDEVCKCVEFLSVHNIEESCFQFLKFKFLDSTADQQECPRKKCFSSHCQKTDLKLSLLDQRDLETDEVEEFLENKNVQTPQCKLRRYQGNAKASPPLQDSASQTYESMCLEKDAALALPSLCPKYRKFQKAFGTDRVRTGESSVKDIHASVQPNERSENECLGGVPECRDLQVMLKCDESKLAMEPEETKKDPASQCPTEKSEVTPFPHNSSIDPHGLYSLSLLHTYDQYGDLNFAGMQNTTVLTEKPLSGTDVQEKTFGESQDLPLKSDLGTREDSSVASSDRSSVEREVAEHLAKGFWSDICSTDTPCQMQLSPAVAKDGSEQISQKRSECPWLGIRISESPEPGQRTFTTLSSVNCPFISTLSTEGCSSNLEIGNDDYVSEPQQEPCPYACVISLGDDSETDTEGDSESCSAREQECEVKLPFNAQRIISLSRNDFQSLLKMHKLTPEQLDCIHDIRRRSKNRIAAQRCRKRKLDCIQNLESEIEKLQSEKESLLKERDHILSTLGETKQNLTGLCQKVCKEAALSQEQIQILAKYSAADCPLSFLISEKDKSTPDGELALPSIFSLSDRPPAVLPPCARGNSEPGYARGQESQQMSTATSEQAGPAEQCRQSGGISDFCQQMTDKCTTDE
The assay can be described thus: co-immunoprecipitation of endogenous GULP1 from whole-cell lysates (BFTC905, BFTC909, HUC1, T24), western blot. An excerpt:
(§1) a. […] Confocal imaging analysis of T24 cells. […] A not related protein antibody was used as a negative control for IP and 10% of whole cell lysate was used as input. d.
Background: Immunoblotting shows a protein as a band on a membrane.

Assay [5] addresses T2, Nuclear factor E2-related factor 2 (Nrf2) (UniProt Q16236 1-605, limits assumed).
T2 construct: Endogenous protein from lysates of human cell lines; also called NFE2L2; NF2EL2
T2 sequence (looked up): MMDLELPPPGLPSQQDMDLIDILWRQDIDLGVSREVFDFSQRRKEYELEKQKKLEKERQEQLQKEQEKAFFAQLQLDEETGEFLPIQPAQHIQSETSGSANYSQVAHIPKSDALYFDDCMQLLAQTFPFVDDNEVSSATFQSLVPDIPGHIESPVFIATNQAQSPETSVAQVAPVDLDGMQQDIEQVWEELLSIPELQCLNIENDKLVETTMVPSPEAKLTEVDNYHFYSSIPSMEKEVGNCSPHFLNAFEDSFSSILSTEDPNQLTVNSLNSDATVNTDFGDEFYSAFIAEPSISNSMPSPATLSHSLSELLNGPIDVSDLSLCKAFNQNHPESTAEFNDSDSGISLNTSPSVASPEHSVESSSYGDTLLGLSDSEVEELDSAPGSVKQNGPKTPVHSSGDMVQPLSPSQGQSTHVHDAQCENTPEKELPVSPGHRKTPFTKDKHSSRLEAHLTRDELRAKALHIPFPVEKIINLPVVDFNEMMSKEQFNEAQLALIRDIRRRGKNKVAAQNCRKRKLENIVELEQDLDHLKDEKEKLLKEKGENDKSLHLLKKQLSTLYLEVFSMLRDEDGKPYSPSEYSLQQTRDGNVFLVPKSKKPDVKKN
The assay is described as above.
Excerpt: as §1

Consider 4 molecules from patent publication US20220064736A1, “UROTHELIAL CANCER AND METHODS OF DETECTION AND TARGETED THERAPY” (THE JOHNS HOPKINS UNIVERSITY, priority 2015, published 2022).

With `[NH2][Pt]([NH2])([Cl])[Cl]` [CDDP, Cisplatin], the “overall long-term survival benefit” value in assay [1] was 6%. In assay [2], the “Cell viability of GULP1 knock-down cells compared with control cells” value is listed as “significantly higher viability than the control cells”.

On to `Nc1ncn([C@H]2C[C@H](O)[C@@H](CO)O2)c(=O)n1` [5-aza-dC, 5-Aza-2′-deoxycytidine], for which, in the assay on GULP1 transcript (HT-1376 and SW780 UC cells, 5-azadC with or without trichostatin A (TSA), consistent with promoter demethylation), the GULP1 transcript level entry is on record as “several fold increase in GULP1 transcript”. For the same molecule, the GULP1 reactivation entry with GULP1 transcript (UC cell lines) was “reactivation of GULP1 was observed”.

In the case of `CCC(=C/[C@H](C)C/C=C/C(C)=C/[C@@H](C)C(=O)[C@@H](C)[C@H](O)[C@@H](C)C/C(C)=C/C(=O)O)/C=C/[C@@H]1OC(=O)C=C[C@@H]1C` [Leptomycin B], the GULP1 nuclear export result in assay [3] is listed as “prevent GULP1 from going out from nucleus”.

B1: PTB Domain-Containing Engulfment Adaptor Protein1 (GULP1) (other, human, UniProt Q9UBP9 1-304, looked up)
chain: MNRAFSRKKDKTWMHTPEALSKHFIPYNAKFLGSTEVEQPKGTEVVRDAVRKLKFARHIKKSEGQKIPKVELQISIYGVKILEPKTKEVQHNCQLHRISFCADDKTDKRIFTFICKDSESNKHLCYVFDSEKCAEEITLTIGQAFDLAYRKFLESGGKDVETRKQIAGLQKRIQDLETENMELKNKVQDLENQLRITQVSAPPAGSMTPKSPSTDIFDMIPFSPISHQSSMPTRNGTQPPPVPSRSTEIKRDLFGAEPFDPFNCGAADFPPDIQSKLDEMQEGFKMGLTLEGTVFCLDPLDSRC
notes: Endogenous protein from cell lysates; also called engulfment adaptor PTB domain containing 1; human homologue of CED-6
B1: the binding result in assay [4] and in assay [5] was “no binding” in each case.
